Data: publication PMC4769088, “Antifungal Activity and Action Mechanism of Histatin 5-Halocidin Hybrid Peptides against Candida ssp” (PLoS ONE, 2016)
Where two headings read alike, the source gives them in different places. Where a SMILES comes first, the peptide text is derived from it. Bridges are numbered along the chain shown (N, C = ends). Roman numbers before positions name the chains, in order.

Key:
[1] = test system: C. albicans strains; assay: Broth dilution assay (MIC), C. albicans strains; type: cell-based, Candida albicans
Procedure: (§1) To determine the candidacidal activity of the peptides, we used Candida strains obtained from the Culture collection of antimicrobial resistant microbes at Seoul Women’s University in Korea. These included three Candida albicans (CCARM 14020, 14021, 14022), Candida guillermondi and Candida tropicalis. In addition, Candida albicans SC5413 was kindly provided by Dr Jeong-Yoon Kim at the Department of Microbiology & Molecular Biology, Chungnam University, Korea. Yeast were cultured overnight at 30°C in 10 ml of yeast extract-peptone-dextrose (YPD) broth (Qbiogene), then diluted in 10 ml of YPD broth to OD600 = 0.2 and grown for an additional 4 h with shaking at 30°C until OD600 = 0.8 in order to obtain mid-log phase cultures. The peptides (Hst 5, P113, HHP1, HHP2, PH1, PH2, di-PH1, di-PH2, WP1, di-WP2, di-15Hc and di-18Hc) in this study were synthesized by using standard solid-phase synthesis protocols and were purified by reversed-phase high-performance liquid chromatography at Anygen Inc. (Korea). FITC-labeled peptides (F-Hst5, F-P113, F-HHP1, F-di-PH2, F-di-WP2 and F-di-18Hc) were also synthesized by 6-aminohexnoic acid linker at Anygen (Korea) for confocal experiments.
(§2) The candidacidal activities of the peptides were tested by using standard microdilution plate assays, radial diffusion assays and broth dilution assay slightly modified from the procedure recommended by the National Committee for Clinical Laboratory Standards. For the candidacidal assays, C. albicans cells were grown in YPD medium and washed twice with 10 mM sodium phosphate buffer (NaPB; Na2HPO4, NaH2PO4, pH 7.4). The cells (1 x 10^6) were then mixed with different concentrations of peptides and incubated at 30°C with constant shaking for 60 min. For energy depletion experiments, cells were pre-incubated with 10 mM NaPB containing 5 mM NaN3 at 30°C for 60 min before the addition of peptides. The cell suspensions were diluted in 10 mM NaPB and aliquots of 500 cells were spread onto YPD agar plates then incubated for 24 h at 30°C to visualize the surviving colonies. Cell survival was expressed as a percentage of that for the control, and the loss of viability was calculated as [1 x (number of colonies from peptide-treated cells/number of colonies from control cells)] x 100. Candidacidal assays were performed in triplicate. For the radial diffusion assay, C. albicans cells were grown in YPD medium overnight and washed twice with 10 mM NaPB. Washed yeast-phase C. albicans cells (1 x 10^6 CFU) were trapped in thin underlay gels containing 9 mM sodium phosphate, 1 mM sodium citrate buffer, 1% (wt/vol) agarose (A6013; Sigma), and 0.3 mg of Sabouraud dextrose broth (Difco)/ml. After incubation at 37°C for 3 h, a 10 ml overlay gel of 1% agarose and 6% Sabouraud dextrose broth was poured on the underlay gel and then the plates were incubated overnight at 37°C. The clear-zone diameters were measured to the nearest 0.1 mm and graphed against the peptide concentration. Zone diameters were expressed in units (0.1 mm = 1 unit). For the broth dilution assay, the Candida strains were cultured in LYM broth for 18 h at 30°C. The numbers of yeasts were counted using a hemocytometer. Stock peptide solutions were prepared to a concentration of 320 μg/ml in distilled water, and were then serially diluted twofold, to 5 μg/ml. […] The antifungal activities were evaluated after 24 h of incubation at 30°C by the observation of visible turbidity the wells. […]

[2] = CD spectra, secondary structure analysis; type: physicochemical; conditions: 200 μg/ml peptide
Procedure: Circular dichroism (CD) spectra of the six peptides (Hst5, P113, HHP1, di-PH2, di-WP2 and di-18Hc) were measured with a J-715 spectropolarimeter (Jasco, Tokyo, Japan). Two hundred micrograms of each peptide was resuspended in 1 ml of 10 mM NaPB (pH 7.0) (i) without other additives, (ii) with 10% laminarin (LAM) or (iii) with 50% trifluoroethanol (TFE) (a known helix-inducing solvent). The spectra were measured at room temperature in a 1-mm-path-length quartz cell. The scanning speed was 10 nm/min (180 to 260 nm), and each spectrum was the average of five scans.
Fig 3 CD spectra of Hst5, P113, di-18Hc and hybrid peptides. This study was performed with one concentration (200 μg/ml) of each peptide in various buffers: 10 mM sodium phosphate buffer (Red line), 50% TFE in phosphate buffer (green line) and 20 mg of laminarin in phosphate buffer.

[3] = test system: C.albicans CCARM 14021; type: cell-based, Candida albicans
Procedure: as §1
The candidacidal activities of the peptides were tested by using standard microdilution plate assays, radial diffusion assays and broth dilution assay slightly modified from the procedure recommended by the National Committee for Clinical Laboratory Standards. For the candidacidal assays, C. albicans cells were grown in YPD medium and washed twice with 10 mM sodium phosphate buffer (NaPB; Na2HPO4, NaH2PO4, pH 7.4). The cells (1 x 10^6) were then mixed with different concentrations of peptides and incubated at 30°C with constant shaking for 60 min. For energy depletion experiments, cells were pre-incubated with 10 mM NaPB containing 5 mM NaN3 at 30°C for 60 min before the addition of peptides. The cell suspensions were diluted in 10 mM NaPB and aliquots of 500 cells were spread onto YPD agar plates then incubated for 24 h at 30°C to visualize the surviving colonies. Cell survival was expressed as a percentage of that for the control, and the loss of viability was calculated as [1 x (number of colonies from peptide-treated cells/number of colonies from control cells)] x 100. Candidacidal assays were performed in triplicate. For the radial diffusion assay, C. albicans cells were grown in YPD medium overnight and washed twice with 10 mM NaPB. Washed yeast-phase C. albicans cells (1 x 10^6 CFU) were trapped in thin underlay gels containing 9 mM sodium phosphate, 1 mM sodium citrate buffer, 1% (wt/vol) agarose (A6013; Sigma), and 0.3 mg of Sabouraud dextrose broth (Difco)/ml. After incubation at 37°C for 3 h, a 10 ml overlay gel of 1% agarose and 6% Sabouraud dextrose broth was poured on the underlay gel and then the plates were incubated overnight at 37°C. The clear-zone diameters were measured to the nearest 0.1 mm and graphed against the peptide concentration. Zone diameters were expressed in units (0.1 mm = 1 unit). For the broth dilution assay, the Candida strains were cultured in LYM broth for 18 h at 30°C. The numbers of yeasts were counted using a hemocytometer. Stock peptide solutions were prepared to a concentration of 320 μg/ml in distilled water, and were then serially diluted twofold, to 5 μg/ml. 100 μl aliquots of the diluted culture media containing candida cells (1 x 10^3) were dispensed into the wells of 96-well polypropylene microtiter plates (Costar 3879, Corning, NY), to which peptide solution (11 μl) was then added. In the experiments conducted to assess the candidacidal activity of peptides in the presence of salt, we used LYM supplemented with 150 mM NaCl for the culture medium, which was mixed with the peptide solution. The antifungal activities were evaluated after 24 h of incubation at 30°C by the observation of visible turbidity the wells. […]

[4] = test system: Candida cells; assay: ROS production (DCFH-DA fluorometric assay); type: cell-based, Candida albicans; conditions: 32 μg/ml peptide, 120 min, 10 μM DCFH-DA, ex 485 / em 530 nm
Procedure: The amount of ROS produced by Candida cells treated with peptides was measured by a fluorometric assay with DCFHDA as described earlier. Briefly, the cells were adjusted to an OD600 of 1 in 10 ml of NaPB and centrifuged at 5000 ×g for 10 min. The cell pellet was then resuspended in NaPB and treated with peptides alone or with ascorbic acid. After the addition of 10 μM 2`,7`dichlorofluorescein diacetate (DCFH-DA), the fluorescence intensity of the induced ROS production was recorded every 10 min at excitation and emission wavelengths of 485 nm and 530 nm, respectively, in a Perkin Elmer 2030 Reader (Victor X3).  Fig 7 The effect of peptides on ROS generation. Time-dependency of DCF fluorescence as a measure of ROS generation (A) and killing activity (B) were determined in Candida cells treated with peptides (32 μg/ml) or peptides + Ascorbic acid (200 μg/ml) by Perkin Elmer 2030 reader (VictorX 3) and colony count assay, respectively. The fluorescence obtained with the cells treated with 10 mM of H2O2 served as positive control and the cells without peptide served as negative control. The fluorescent intensity of DCF was recorded every 10 min for 120 min at excitation and emission wavelengths of 485 and 530 nm, respectively.

[5] = test system: C. tropicalis; assay: Broth dilution assay (MIC); type: cell-based, Candida tropicalis; conditions: 150 mM NaCl
Procedure: as §1
as §2, with “Washed yeast-phase C. albicans cells (1 x 10^6 CFU) were trapped in thin underlay gels containing 9 mM sodium phosphate, 1 mM sodium citrate buffer, 1% (wt/vol) agarose (A6013; Sigma), and 0.3 mg of Sabouraud dextrose broth (Difco)/ml. After incubation at 37°C for 3 h, a 10 ml overlay gel of 1% agarose and 6% Sabouraud dextrose broth was poured on the underlay gel and then the plates were incubated overnight at 37°C.” left out, “Zone diameters were expressed in units (0.1 mm = 1 unit). For the broth dilution assay, the Candida strains were cultured in LYM broth for 18 h at 30°C.” left out, “hemocytometer.” for “hemocytometer. Stock peptide solutions were prepared to a concentration of 320 μg/ml in distilled water, and were then serially diluted twofold, to 5 μg/ml.”

[6] = solvent 10mM NaPB (pH 7.0), room temperature, average of five scans

| SMILES | killing activities against C. albicans strains in 150 mM salt ([1]; 150 mM NaCl) | Secondary structure (%) Beta ([2]; solvent 10mM NaPB (pH 7.0)) [%] | Secondary structure (%) Random ([2]; solvent 10mM NaPB (pH 7.0)) [%] | Secondary structure (%) Turn ([2]; solvent 10mM NaPB (pH 7.0)) [%] | Secondary structure (%) Helix [2, 6] [%] | Secondary structure (%) Beta ([2]; solvent 50% TFE in 10 mM NaPB) [%] | Secondary structure (%) Helix ([2]; solvent 50% TFE in 10 mM NaPB) [%] | Secondary structure (%) Random ([2]; solvent 50% TFE in 10 mM NaPB) [%] | Secondary structure (%) Turn ([2]; solvent 50% TFE in 10 mM NaPB) [%] | MICs ([3]; CCARM 14021, 24 h) [µg/mL] | MICs ([3]; NaCl 150 mM, LYM supplemented with 150 mM NaCl, 24 h at 30°C) | DCF fluorescence intensity (ROS generation) [4] | decrease of killing activities in 150 mM salt ([1]; 150 mM NaCl versus no salt, C. albicans strains) | killing activities against C. tropicalis in 150 mM NaCl salt [5] |
| --- | --- | --- | --- | --- | --- | --- | --- | --- | --- | --- | --- | --- | --- | --- |
| C[C@H](NC(=O)[C@H](Cc1c[nH]cn1)NC(=O)[C@H](CO)NC(=O)[C@@H](N)CC(=O)O)C(=O)N[C@@H](CCCCN)C(=O)N[C@@H](CCCNC(=N)N)C(=O)N[C@@H](Cc1c[nH]cn1)C(=O)N[C@@H](Cc1c[nH]cn1)C(=O)NCC(=O)N[C@@H](Cc1ccc(O)cc1)C(=O)N[C@@H](CCCCN)C(=O)N[C@@H](CCCNC(=N)N)C(=O)N[C@@H](CCCCN)C(=O)N[C@@H](Cc1ccccc1)C(=O)N[C@@H](Cc1c[nH]cn1)C(=O)N[C@@H](CCC(=O)O)C(=O)N[C@@H](CCCCN)C(=O)N[C@@H](Cc1c[nH]cn1)C(=O)N[C@@H](Cc1c[nH]cn1)C(=O)N[C@@H](CO)C(=O)N[C@@H](Cc1c[nH]cn1)C(=O)N[C@@H](CCCNC(=N)N)C(=O)NCC(=O)N[C@@H](Cc1ccc(O)cc1)C(=O)O [Hst 5, Histatin 5] | abolished | 19.3 | 74.5 | 6.2 | 0 | 7.3 | 76.2 | 0.0 | 16.4 | 4 to 8 | 32< μg/ml | constant increase in fluorescence intensity | – | – |
| CC(C)C[C@H](NC(=O)CNC(=O)[C@H](Cc1c[nH]cn1)NC(=O)[C@H](Cc1c[nH]cn1)NC(=O)[C@H](CC(C)C)NC(=O)[C@H](CC(C)C)NC(=O)[C@H](C)NC(=O)[C@H](CC(N)=O)NC(=O)[C@H](CC(C)C)NC(=O)[C@@H](N)Cc1c[nH]c2ccccc12)C(=O)N[C@@H](CC(N)=O)C(=O)N[C@@H](CSSC[C@H](NC(=O)[C@H](CC(N)=O)NC(=O)[C@H](CC(C)C)NC(=O)CNC(=O)[C@H](Cc1c[nH]cn1)NC(=O)[C@H](Cc1c[nH]cn1)NC(=O)[C@H](CC(C)C)NC(=O)[C@H](CC(C)C)NC(=O)[C@H](C)NC(=O)[C@H](CC(N)=O)NC(=O)[C@H](CC(C)C)NC(=O)[C@@H](N)Cc1c[nH]c2ccccc12)C(=O)N[C@@H](C)C(=O)N[C@@H](CCCCN)C(=O)NCC(=O)N[C@H](C(=O)N[C@@H](CC(C)C)C(=O)N[C@@H](C)C(N)=O)C(C)C)C(=O)N[C@@H](C)C(=O)N[C@@H](CCCCN)C(=O)NCC(=O)N[C@H](C(=O)N[C@@H](CC(C)C)C(=O)N[C@@H](C)C(N)=O)C(C)C [di-18Hc, reference compound] (I: H-WLNALLHHGLNCAKGVLA-NH2 / II: H-WLNALLHHGLNCAKGVLA-NH2; disulfide I:12-II:12 (inferred); N-terminus assumed) | – | 29.2 | 61.5 | 5.5 | 3.8 | 10.4 | 47.0 | 28.4 | 14.2 | – | – | little fluorescence | 4-8 fold | retained |
